According to PubChem BioAssay AID248 (DTP/NCI, 2004):
Values joined by “and” are separate entries in the source; they are usually repeats but may differ in a detail not shown here. Identical values can stand only once. Inconclusive results and toxic doses are left out. Rule as the data show it: active = T/C of 150% or more; inactive = T/C below 125%.

Test system: L1210 leukemia ip in BDF1 mice, survival T/C
Assay: NCI In Vivo Anticancer Drug Screen. Data for tumor model L1210 Leukemia (intraperitoneal) in B6D2F1 (BDF1) mice
Conditions: endpoint: mean survival time, higher = longer survival
Method in brief: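 Transplanted-tumor mice were given test agent; controls received vehicle only. Survival readings from the two groups were divided (treated over control).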

[1] = dose: 100.0 mg/kg/injection, schedule: Q04DX003 (ip), vehicle: saline
[2] = dose: 200.0 mg/kg/injection, schedule: Q04DX003 (ip), vehicle: saline
[3] = dose: 400.0 mg/kg/injection, schedule: Q04DX003 (ip), vehicle: saline
[4] = dose: 25.0 mg/kg/injection, schedule: Q04DX003 (ip), vehicle: saline
[5] = dose: 50.0 mg/kg/injection, schedule: Q04DX003 (ip), vehicle: saline
[6] = dose: 100.0 mg/kg/injection, schedule: Q01DX001 (ip), vehicle: saline
[7] = dose: 100.0 mg/kg/injection, schedule: Q01DX009 (ip), vehicle: saline with Tween-80
[8] = dose: 100.0 mg/kg/injection, schedule: Q01DX009 (ip), vehicle: Klucel (hydroxypropylcellulose) (HPC)
[9] = dose: 100.0 mg/kg/injection, schedule: Q04DX003 (ip), vehicle: Klucel (hydroxypropylcellulose) (HPC)
[10] = dose: 200.0 mg/kg/injection, schedule: Q01DX009 (ip), vehicle: Klucel (hydroxypropylcellulose) (HPC)
[11] = dose: 200.0 mg/kg/injection, schedule: Q04DX003 (ip), vehicle: Klucel (hydroxypropylcellulose) (HPC)
[12] = dose: 400.0 mg/kg/injection, schedule: Q01DX009 (ip), vehicle: Klucel (hydroxypropylcellulose) (HPC)
[13] = dose: 400.0 mg/kg/injection, schedule: Q04DX003 (ip), vehicle: Klucel (hydroxypropylcellulose) (HPC)
[14] = dose: 50.0 mg/kg/injection, schedule: Q01DX001 (ip), vehicle: carboxymethylcellulose (CMC)
[15] = dose: 100.0 mg/kg/injection, schedule: Q01DX001 (ip), vehicle: carboxymethylcellulose (CMC)
[16] = dose: 200.0 mg/kg/injection, schedule: Q01DX001 (ip), vehicle: carboxymethylcellulose (CMC)
[17] = dose: 400.0 mg/kg/injection, schedule: Q01DX001 (ip), vehicle: carboxymethylcellulose (CMC)
[18] = dose: 200.0 mg/kg/injection, schedule: Q01DX001 (ip), vehicle: saline
[19] = dose: 100.0 mg/kg/injection, schedule: Q04DX002 (ip), vehicle: saline with Tween-80
[20] = dose: 200.0 mg/kg/injection, schedule: Q04DX002 (ip), vehicle: saline with Tween-80
[21] = dose: 400.0 mg/kg/injection, schedule: Q04DX002 (ip), vehicle: saline with Tween-80

Measured: T/C

COC(=O)c1cn2ccc(C(=O)c3ccccc3)cc2c1C(=O)OC
inactive: dose: 100.0 mg/kg/injection, schedule: Q04DX002 (ip), vehicle: Klucel (hydroxypropylcellulose) (HPC) 95 % of control | dose: 200.0 mg/kg/injection, schedule: Q04DX002 (ip), vehicle: Klucel (hydroxypropylcellulose) (HPC) 106 % of control | dose: 400.0 mg/kg/injection, schedule: Q04DX002 (ip), vehicle: Klucel (hydroxypropylcellulose) (HPC) 98 % of control

CCCn1nnc2ccccc2c1=Nc1ccccc1
inactive: [1] 99 % of control | [2] 94 % of control | [3] 103 % of control

CC(=O)OCC1C(C)CCC1C(C)(C)OC(C)=O (stereo not drawn)
inactive: [4] 95 % of control | [5] 109 % of control | [6] 107 % of control | [1] 98 % of control

Cc1ccc(-n2c(=S)[nH]c3ccccc3c2=O)cc1
inactive: dose: 25.0 mg/kg/injection, schedule: Q01DX009 (ip), vehicle: saline with Tween-80 92 % of control | dose: 50.0 mg/kg/injection, schedule: Q01DX009 (ip), vehicle: saline with Tween-80 90 % of control | [7] 87 % of control

O=S(=O)(O)C(Nc1ccccc1)c1ccccc1 (stereo not drawn)
inactive: [7] 100 % of control | dose: 100.0 mg/kg/injection, schedule: Q04DX003 (ip), vehicle: saline with Tween-80 97 % of control | dose: 150.0 mg/kg/injection, schedule: Q01DX001 (ip), vehicle: water 96 % of control | dose: 162.0 mg/kg/injection, schedule: Q01DX Z (ip), vehicle: carboxymethylcellulose (CMC) 95 % of control | dose: 200.0 mg/kg/injection, schedule: Q01DX009 (ip), vehicle: saline with Tween-80 96 % of control | dose: 200.0 mg/kg/injection, schedule: Q04DX003 (ip), vehicle: saline with Tween-80 101 % of control | dose: 300.0 mg/kg/injection, schedule: Q01DX001 (ip), vehicle: water 100 % of control | dose: 324.0 mg/kg/injection, schedule: Q01DX Z (ip), vehicle: carboxymethylcellulose (CMC) 94 % of control | dose: 400.0 mg/kg/injection, schedule: Q01DX009 (ip), vehicle: saline with Tween-80 101 % of control | dose: 400.0 mg/kg/injection, schedule: Q01DX015 (ip), vehicle: water 119 % of control | dose: 400.0 mg/kg/injection, schedule: Q04DX003 (ip), vehicle: saline with Tween-80 93 % of control | dose: 600.0 mg/kg/injection, schedule: Q01DX001 (ip), vehicle: water 96 % of control | dose: 600.0 mg/kg/injection, schedule: Q01DX015 (ip), vehicle: water 104 % of control | dose: 1200.0 mg/kg/injection, schedule: Q01DX001 (ip), vehicle: water 116 % of control

CC(=O)C(=Cc1ccccc1)C(C)=O
inactive: dose: 50.0 mg/kg/injection, schedule: Q01DX009 (ip), vehicle: Klucel (hydroxypropylcellulose) (HPC) 97 % of control | [8] 87 % of control and 90 % of control | [9] 92 % of control | [1] 106 % of control | [10] 95 % of control | [11] 97 % of control | [2] 116 % of control | [12] 91 % of control | [13] 97 % of control | [3] 106 % of control

CCCC(CCC)(CCC)CCN
inactive: dose: 5.0 mg/kg/injection, schedule: Q01DX Z (ip), vehicle: carboxymethylcellulose (CMC) 91 % of control | dose: 10.0 mg/kg/injection, schedule: Q01DX Z (ip), vehicle: carboxymethylcellulose (CMC) 112 % of control | dose: 15.0 mg/kg/injection, schedule: Q01DX Z (ip), vehicle: carboxymethylcellulose (CMC) 106 % of control | dose: 20.0 mg/kg/injection, schedule: Q01DX Z (ip), vehicle: carboxymethylcellulose (CMC) 101 % of control

Cc1ccc(Nc2cc(=S)nc(N)[nH]2)cc1Cl
inactive: dose: 100.0 mg/kg/injection, schedule: Q01DX Z (ip), vehicle: methylcellulose (MC) 97 % of control | dose: 200.0 mg/kg/injection, schedule: Q01DX Z (ip), vehicle: methylcellulose (MC) 96 % of control

COc1cc(C2c3c(cc(OC)c(O)c3OC)C=C(C(=O)O)C2CO)cc(OC)c1O (stereo not drawn)
inactive: [14] 94 % of control | [15] 102 % of control | [16] 96 % of control | [17] 91 % of control

CN(Cc1ccccc1)c1ccc(SC#N)cc1
inactive: [6] 98 % of control | [18] 104 % of control

COC(=O)C1=C(C(=O)OC)C2(O)c3ccccc3C1c1ccccc12
inactive: dose: 100.0 mg/kg/injection, schedule: Q01DX009 (ip), vehicle: saline 100 % of control | dose: 200.0 mg/kg/injection, schedule: Q01DX009 (ip), vehicle: saline 93 % of control | dose: 400.0 mg/kg/injection, schedule: Q01DX009 (ip), vehicle: saline 88 % of control

Clc1ccc2c(NCCN3CCCCCC3)nc(C(Cl)(Cl)Cl)nc2c1
inactive: dose: 75.0 mg/kg/injection, schedule: Q01DX001 (ip), vehicle: other 103 % of control | dose: 150.0 mg/kg/injection, schedule: Q01DX001 (ip), vehicle: other 97 % of control

CCCCOC(=O)CCCC(=O)OCCCC
inactive: [8] 98 % of control | [9] 100 % of control | [10] 97 % of control | [11] 101 % of control | [12] 95 % of control | [13] 101 % of control

Cc1cc(N(CCCl)CCCl)ccc1CN1CCCN(Cc2ccc(N(CCCl)CCCl)cc2C)C1c1ccccc1O
inactive: [14] 106 % of control | [15] 103 % of control | [9] 117 % of control | [16] 103 % of control | [11] 110 % of control | [17] 103 % of control | [13] 122 % of control

O=S(=O)(/C=C\c1ccccc1)N(c1ccccc1)c1ccccc1
inactive: [9] 102 % of control | [11] 110 % of control | [13] 96 % of control

Nc1nc(N)c2ncn(C3OC(CO)C(O)C3O)c2n1 (stereo not drawn)
inactive: [6] 102 % of control | [18] 115 % of control

CCCCOP(=O)(Nc1ccc([N+](=O)[O-])cc1)OCCCC
inactive: [19] 101 % of control | [20] 94 % of control | [21] 90 % of control

Nc1ccc2c(c1)C(=O)c1cc([N+](=O)[O-])ccc1-2
inactive: dose: 25.0 mg/kg/injection, schedule: Q01DX001 (ip), vehicle: Klucel (hydroxypropylcellulose) (HPC) 97 % of control | dose: 50.0 mg/kg/injection, schedule: Q01DX001 (ip), vehicle: Klucel (hydroxypropylcellulose) (HPC) 90 % of control | dose: 100.0 mg/kg/injection, schedule: Q01DX001 (ip), vehicle: Klucel (hydroxypropylcellulose) (HPC) 94 % of control

CC[n+]1ccccc1CCC(=O)Nc1ccccc1
inactive: [4] 97 % of control | [5] 92 % of control | [1] 95 % of control

ClCCN1CCOC1=Nc1ccccc1
inactive: dose: 100.0 mg/kg/injection, schedule: Q01DX001 (ip), vehicle: other 105 % of control | dose: 200.0 mg/kg/injection, schedule: Q01DX001 (ip), vehicle: other 105 % of control | dose: 400.0 mg/kg/injection, schedule: Q01DX001 (ip), vehicle: other 100 % of control

CC(=O)c1ccc(CCC(=O)O)cc1
inactive: [19] 94 % of control | [20] 98 % of control | [21] 90 % of control

NC(=S)N/N=C\c1ccc(/C=N/NC(N)=S)cc1
inactive: dose: 50.0 mg/kg/injection, schedule: Q01DX001 (ip), vehicle: saline 90 % of control | [6] 93 % of control | [18] 90 % of control

Nc1nc(N)c(-c2ccc(Cl)c(Cl)c2)c(CCc2ccc(CNC(=O)c3cc(S(=O)(=O)F)ccc3Cl)cc2)n1
inactive: dose: 100.0 mg/kg/injection, schedule: Q01DX001 (ip), vehicle: saline with Tween-80 97 % of control | dose: 200.0 mg/kg/injection, schedule: Q01DX001 (ip), vehicle: saline with Tween-80 94 % of control | dose: 400.0 mg/kg/injection, schedule: Q01DX001 (ip), vehicle: saline with Tween-80 94 % of control
